Literature values, collected in patent US20180371542A1, “OPIOID RECEPTOR BLOCKADE IN TREATING ALCOHOL USE DISORDERS” (MUSC Foundation for Research Development, priority 2017, published 2018).

Tested on: DSM-IV alcohol dependent individuals
Conditions: all subjects irrespective of genotype; initial report (Schacht et al., 2017)

SMILES: O=C1CC[C@@]2(O)[C@H]3Cc4ccc(O)c5c4[C@@]2(CCN3CC2CC2)[C@H]1O5 [naltrexone]
- Main effect of naltrexone over placebo overall: significant main effect of naltrexone over placebo
